The text below walks through data of ChEMBL document CHEMBL5715260, “Selectivity Literature for EUbOPEN Chemogenomic Library” (2024).

Set-up in all cases: recommended concentration 1 uM
The target of test [1] is Adenosine receptor A1 (Homo sapiens) (UniProt P30542). Description: Selectivity interaction (CEREP panel) EUB0000323b ADORA1. The note with it: at 10 µM.
The target of test [2] is Bromodomain-containing protein 3 (Homo sapiens) (UniProt Q15059). Description: (§1) Selectivity interaction (Bromodomain panel) EUB0000323b BRD3.
The target is the same in test [3]. Described as §1. The source holds these as a separate data set.
Test [4] has as its target Bromodomain-containing protein 4 (Homo sapiens, UniProt O60885). Description: Selectivity interaction (Bromodomain panel) EUB0000323b BRD4.
Test [5] has as its target Bromodomain-containing protein 7 (Homo sapiens) (UniProt Q9NPI1). As to the kind of experiment: Selectivity interaction (Bromodomain panel) EUB0000323b BRD7.
The target of test [6] is Transcription initiation factor TFIID subunit 1-like (Homo sapiens) (UniProt Q8IZX4). As to the kind of experiment: Selectivity interaction (Bromodomain panel) EUB0000323b TAF1L.
Test [7] addresses Transcription intermediary factor 1-alpha (Homo sapiens) (UniProt O15164). As to the kind of experiment: (§2) Selectivity interaction (Bromodomain panel) EUB0000323b TRIM24.
For test [8] the target is unchanged. Described as §2. This is another data set of the same source.
The target in test [9] is T1, Hepatocyte nuclear factor 4-alpha (Homo sapiens) (UniProt P41235).
T1 sequence (whole entry): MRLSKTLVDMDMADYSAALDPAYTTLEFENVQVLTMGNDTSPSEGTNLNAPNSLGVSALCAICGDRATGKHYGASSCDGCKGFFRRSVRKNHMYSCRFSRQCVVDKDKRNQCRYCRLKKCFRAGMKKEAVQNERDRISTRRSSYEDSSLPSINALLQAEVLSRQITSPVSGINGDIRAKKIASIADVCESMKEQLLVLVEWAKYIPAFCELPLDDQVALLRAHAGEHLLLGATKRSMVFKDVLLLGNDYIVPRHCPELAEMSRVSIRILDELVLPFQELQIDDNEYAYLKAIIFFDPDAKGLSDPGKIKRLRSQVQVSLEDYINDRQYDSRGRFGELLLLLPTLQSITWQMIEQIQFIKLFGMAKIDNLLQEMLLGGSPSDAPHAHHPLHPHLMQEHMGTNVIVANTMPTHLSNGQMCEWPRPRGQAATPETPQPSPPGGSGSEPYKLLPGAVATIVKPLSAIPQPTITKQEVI
Description: Selectivity interaction (Reporter gene assay) EUB0000565a HNF4A.

In test [10] the target is T2, Nuclear receptor subfamily 2 group C member 1 (Homo sapiens) (UniProt P13056).
T2 sequence (whole entry): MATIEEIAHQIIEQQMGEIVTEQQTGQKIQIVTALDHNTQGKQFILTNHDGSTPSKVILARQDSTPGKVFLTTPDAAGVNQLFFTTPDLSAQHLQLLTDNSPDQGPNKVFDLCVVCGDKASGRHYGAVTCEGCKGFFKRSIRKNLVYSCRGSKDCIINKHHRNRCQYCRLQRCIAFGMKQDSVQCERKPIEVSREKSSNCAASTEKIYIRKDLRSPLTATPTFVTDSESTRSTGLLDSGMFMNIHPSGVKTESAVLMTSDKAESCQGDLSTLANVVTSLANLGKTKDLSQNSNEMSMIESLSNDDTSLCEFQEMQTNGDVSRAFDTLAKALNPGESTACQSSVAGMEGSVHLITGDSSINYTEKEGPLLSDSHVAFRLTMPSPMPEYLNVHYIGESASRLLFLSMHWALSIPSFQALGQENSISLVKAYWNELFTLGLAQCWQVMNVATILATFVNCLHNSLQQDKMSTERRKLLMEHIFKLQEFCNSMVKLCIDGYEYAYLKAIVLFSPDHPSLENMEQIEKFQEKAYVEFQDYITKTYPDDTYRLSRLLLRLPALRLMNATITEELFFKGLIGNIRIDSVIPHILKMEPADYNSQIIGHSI
Description: Selectivity interaction (Reporter gene assay) EUB0000565a NR2C1.

The target of test [11] is Nuclear receptor subfamily 2 group E member 1 (Homo sapiens) (UniProt Q9Y466). As to the kind of experiment: Selectivity interaction (Reporter gene assay) EUB0000565a NR2E1.
In test [12] the target is Nuclear receptor subfamily 4immunitygroup A member 1 (Homo sapiens) (UniProt P22736). Description: Selectivity interaction (Reporter gene assay) EUB0000565a NR4A1. (In general: A reporter such as luciferase makes a cellular process visible.)
The target of test [13] is Steroidogenic factor 1 (Homo sapiens) (UniProt Q13285). Description: Selectivity interaction (Reporter gene assay) EUB0000565a NR5A1.
For test [14], the target named is T3, Alpha trans-inducing protein (Human alphaherpesvirus 1) (UniProt A0A5J6DW59). As to the kind of experiment: Selectivity interaction (Reporter gene assay) EUB0000565a UL48.
The target in test [15] is T4, Retinoic acid receptor RXR-alpha (Homo sapiens) (UniProt P19793).
T4 sequence (whole entry): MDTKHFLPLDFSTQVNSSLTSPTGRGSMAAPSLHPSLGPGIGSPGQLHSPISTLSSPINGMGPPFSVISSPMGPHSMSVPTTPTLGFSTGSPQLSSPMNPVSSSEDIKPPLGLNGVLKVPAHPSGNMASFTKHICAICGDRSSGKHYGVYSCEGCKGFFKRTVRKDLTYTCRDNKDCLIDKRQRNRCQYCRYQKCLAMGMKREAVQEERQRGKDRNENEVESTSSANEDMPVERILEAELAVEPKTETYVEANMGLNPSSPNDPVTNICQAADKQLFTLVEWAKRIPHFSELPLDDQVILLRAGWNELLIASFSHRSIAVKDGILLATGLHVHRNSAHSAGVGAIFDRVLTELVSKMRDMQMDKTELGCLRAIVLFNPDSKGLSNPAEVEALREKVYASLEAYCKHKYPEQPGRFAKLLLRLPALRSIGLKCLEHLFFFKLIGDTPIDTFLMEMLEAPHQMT
As to the kind of experiment: Selectivity interaction (Reporter gene assay) EUB0000565a RXRA. Particulars: reference bexarotene 1 uM, Selectivity number of off-targets 0.0, Selectivity number of targets 1.0, Source Knowledge inhouse.

Test [16] has as its target Retinoic acid receptor beta (Homo sapiens) (UniProt P10826). Description: Selectivity interaction (Reporter gene assay) EUB0000565a RARB. Particulars: screened at recom. conc., Selectivity number of off-targets 0.0, Selectivity number of targets 19.0, Source Knowledge inhouse.
Test [17] concerns the target T2, Nuclear receptor subfamily 2 group C member 1 (Homo sapiens). Description: Selectivity interaction (Reporter gene assay) EUB0000568a NR2C1. Particulars: screened at recom. conc., Selectivity number of off-targets 2.0, Selectivity number of targets 5.0, Source Knowledge inhouse.
The target in test [18] is Nuclear receptor subfamily 2 group E member 1 (Homo sapiens) (UniProt Q9Y466). Description: Selectivity interaction (Reporter gene assay) EUB0000568a NR2E1. The note with it: screened at recom. conc., Selectivity number of off-targets 2.0, Selectivity number of targets 5.0, Source Knowledge inhouse.
Test [19] addresses T1, Hepatocyte nuclear factor 4-alpha (Homo sapiens). Description: Selectivity interaction (Reporter gene assay) EUB0000568a HNF4A.
Test [20] addresses Nuclear receptor subfamily 4immunitygroup A member 1 (Homo sapiens) (UniProt P22736). Description: Selectivity interaction (Reporter gene assay) EUB0000568a NR4A1.
The target of test [21] is Steroidogenic factor 1 (Homo sapiens) (UniProt Q13285). As to the kind of experiment: Selectivity interaction (Reporter gene assay) EUB0000568a NR5A1.
In test [22] the target is T3, Alpha trans-inducing protein (Human alphaherpesvirus 1). As to the kind of experiment: Selectivity interaction (Reporter gene assay) EUB0000568a UL48.
For test [23], the target named is T4, Retinoic acid receptor RXR-alpha (Homo sapiens). Description: Selectivity interaction (Reporter gene assay) EUB0000568a RXRA. The note with it: reference bexarotene 1 uM, Selectivity number of off-targets 0.0, Selectivity number of targets 1.0, Source Knowledge inhouse.
Test [24] addresses T1, Hepatocyte nuclear factor 4-alpha (Homo sapiens). Description: Selectivity interaction (Reporter gene assay) EUB0000555a HNF4A.
The target in test [25] is T2, Nuclear receptor subfamily 2 group C member 1 (Homo sapiens). Description: Selectivity interaction (Reporter gene assay) EUB0000555a NR2C1.
Test [26] has as its target Nuclear receptor subfamily 2 group E member 1 (Homo sapiens) (UniProt Q9Y466). As to the kind of experiment: Selectivity interaction (Reporter gene assay) EUB0000555a NR2E1.
In test [27] the target is Nuclear receptor subfamily 4immunitygroup A member 1 (Homo sapiens) (UniProt P22736). Description: Selectivity interaction (Reporter gene assay) EUB0000555a NR4A1.
For test [28], the target named is Steroidogenic factor 1 (Homo sapiens) (UniProt Q13285). As to the kind of experiment: Selectivity interaction (Reporter gene assay) EUB0000555a NR5A1.
For test [29], the target named is T3, Alpha trans-inducing protein (Human alphaherpesvirus 1). As to the kind of experiment: Selectivity interaction (Reporter gene assay) EUB0000555a UL48.
Test [30] has as its target T4, Retinoic acid receptor RXR-alpha (Homo sapiens). As to the kind of experiment: Selectivity interaction (Reporter gene assay) EUB0000555a RXRA.
The target of test [31] is T1, Hepatocyte nuclear factor 4-alpha (Homo sapiens). Description: Selectivity interaction (Reporter gene assay) EUB0000551aCl HNF4A.
For test [32], the target named is T2, Nuclear receptor subfamily 2 group C member 1 (Homo sapiens). As to the kind of experiment: Selectivity interaction (Reporter gene assay) EUB0000551aCl NR2C1.
Test [33] addresses Nuclear receptor subfamily 2 group E member 1 (Homo sapiens) (UniProt Q9Y466). Description: Selectivity interaction (Reporter gene assay) EUB0000551aCl NR2E1.
Test [34] concerns the target Nuclear receptor subfamily 4immunitygroup A member 1 (Homo sapiens) (UniProt P22736). Description: Selectivity interaction (Reporter gene assay) EUB0000551aCl NR4A1.
Test [35] concerns the target Steroidogenic factor 1 (Homo sapiens) (UniProt Q13285). As to the kind of experiment: Selectivity interaction (Reporter gene assay) EUB0000551aCl NR5A1.
For test [36], the target named is T3, Alpha trans-inducing protein (Human alphaherpesvirus 1). Description: Selectivity interaction (Reporter gene assay) EUB0000551aCl UL48.
Test [37] addresses T4, Retinoic acid receptor RXR-alpha (Homo sapiens). Description: Selectivity interaction (Reporter gene assay) EUB0000551aCl RXRA. Particulars: reference bexarotene 1 uM, Selectivity number of off-targets 0.0, Selectivity number of targets 1.0, Source Knowledge inhouse.

T3 sequence (A0A5J6DW59 as listed by the source): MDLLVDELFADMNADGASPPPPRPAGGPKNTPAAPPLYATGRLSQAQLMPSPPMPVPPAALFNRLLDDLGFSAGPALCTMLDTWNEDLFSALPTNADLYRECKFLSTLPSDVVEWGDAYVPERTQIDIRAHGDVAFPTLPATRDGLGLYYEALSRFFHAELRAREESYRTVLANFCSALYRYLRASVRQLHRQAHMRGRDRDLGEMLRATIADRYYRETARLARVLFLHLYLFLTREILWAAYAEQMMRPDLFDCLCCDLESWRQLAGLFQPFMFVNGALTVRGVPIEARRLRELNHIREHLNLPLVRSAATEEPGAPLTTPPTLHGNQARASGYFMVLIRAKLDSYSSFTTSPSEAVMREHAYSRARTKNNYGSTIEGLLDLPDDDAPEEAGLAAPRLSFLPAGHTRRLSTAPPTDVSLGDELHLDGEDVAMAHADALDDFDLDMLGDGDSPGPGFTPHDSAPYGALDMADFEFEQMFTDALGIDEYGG
Chain of Nuclear receptor subfamily 4immunitygroup A member 1 (Homo sapiens) (P22736 whole entry): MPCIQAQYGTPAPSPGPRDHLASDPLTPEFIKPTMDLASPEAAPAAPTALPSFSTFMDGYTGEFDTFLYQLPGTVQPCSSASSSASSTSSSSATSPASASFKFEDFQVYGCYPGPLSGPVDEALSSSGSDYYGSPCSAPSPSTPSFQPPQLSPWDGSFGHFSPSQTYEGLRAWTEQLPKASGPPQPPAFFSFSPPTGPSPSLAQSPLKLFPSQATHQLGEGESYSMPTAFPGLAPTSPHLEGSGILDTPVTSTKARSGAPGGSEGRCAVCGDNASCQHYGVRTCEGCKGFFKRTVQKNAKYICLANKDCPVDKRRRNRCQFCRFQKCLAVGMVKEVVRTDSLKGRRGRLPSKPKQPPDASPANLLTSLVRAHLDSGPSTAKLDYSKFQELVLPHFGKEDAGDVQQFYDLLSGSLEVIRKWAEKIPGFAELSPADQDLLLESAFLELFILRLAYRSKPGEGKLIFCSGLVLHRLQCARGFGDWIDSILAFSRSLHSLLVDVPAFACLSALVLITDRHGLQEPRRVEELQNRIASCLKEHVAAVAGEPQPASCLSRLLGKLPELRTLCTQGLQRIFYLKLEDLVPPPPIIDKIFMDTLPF
Chain of Steroidogenic factor 1 (Homo sapiens) (Q13285 whole entry): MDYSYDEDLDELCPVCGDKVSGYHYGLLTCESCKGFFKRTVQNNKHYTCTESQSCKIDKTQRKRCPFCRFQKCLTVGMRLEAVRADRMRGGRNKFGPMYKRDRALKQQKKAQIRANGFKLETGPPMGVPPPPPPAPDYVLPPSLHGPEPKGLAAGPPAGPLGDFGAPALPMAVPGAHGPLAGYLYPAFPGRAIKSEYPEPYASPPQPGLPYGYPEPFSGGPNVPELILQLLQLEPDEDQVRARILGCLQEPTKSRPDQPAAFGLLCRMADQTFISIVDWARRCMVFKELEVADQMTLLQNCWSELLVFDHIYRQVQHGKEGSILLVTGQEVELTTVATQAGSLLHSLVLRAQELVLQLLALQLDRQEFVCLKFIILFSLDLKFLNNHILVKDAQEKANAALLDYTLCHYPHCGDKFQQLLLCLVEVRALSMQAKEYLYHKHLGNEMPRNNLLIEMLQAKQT
Chain of Nuclear receptor subfamily 2 group E member 1 (Homo sapiens) (Q9Y466 whole entry): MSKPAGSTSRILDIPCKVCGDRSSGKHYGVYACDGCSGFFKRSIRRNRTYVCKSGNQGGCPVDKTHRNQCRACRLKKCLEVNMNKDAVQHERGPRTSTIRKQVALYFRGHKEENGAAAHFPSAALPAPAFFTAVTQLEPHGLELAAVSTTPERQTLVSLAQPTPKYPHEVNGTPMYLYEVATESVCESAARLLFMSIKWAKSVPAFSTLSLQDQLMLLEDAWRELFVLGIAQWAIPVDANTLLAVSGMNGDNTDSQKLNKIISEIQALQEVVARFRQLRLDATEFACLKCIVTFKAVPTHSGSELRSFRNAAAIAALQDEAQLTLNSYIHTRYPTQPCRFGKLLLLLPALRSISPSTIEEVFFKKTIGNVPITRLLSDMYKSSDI
Chain of Transcription intermediary factor 1-alpha (Homo sapiens) (O15164 whole entry): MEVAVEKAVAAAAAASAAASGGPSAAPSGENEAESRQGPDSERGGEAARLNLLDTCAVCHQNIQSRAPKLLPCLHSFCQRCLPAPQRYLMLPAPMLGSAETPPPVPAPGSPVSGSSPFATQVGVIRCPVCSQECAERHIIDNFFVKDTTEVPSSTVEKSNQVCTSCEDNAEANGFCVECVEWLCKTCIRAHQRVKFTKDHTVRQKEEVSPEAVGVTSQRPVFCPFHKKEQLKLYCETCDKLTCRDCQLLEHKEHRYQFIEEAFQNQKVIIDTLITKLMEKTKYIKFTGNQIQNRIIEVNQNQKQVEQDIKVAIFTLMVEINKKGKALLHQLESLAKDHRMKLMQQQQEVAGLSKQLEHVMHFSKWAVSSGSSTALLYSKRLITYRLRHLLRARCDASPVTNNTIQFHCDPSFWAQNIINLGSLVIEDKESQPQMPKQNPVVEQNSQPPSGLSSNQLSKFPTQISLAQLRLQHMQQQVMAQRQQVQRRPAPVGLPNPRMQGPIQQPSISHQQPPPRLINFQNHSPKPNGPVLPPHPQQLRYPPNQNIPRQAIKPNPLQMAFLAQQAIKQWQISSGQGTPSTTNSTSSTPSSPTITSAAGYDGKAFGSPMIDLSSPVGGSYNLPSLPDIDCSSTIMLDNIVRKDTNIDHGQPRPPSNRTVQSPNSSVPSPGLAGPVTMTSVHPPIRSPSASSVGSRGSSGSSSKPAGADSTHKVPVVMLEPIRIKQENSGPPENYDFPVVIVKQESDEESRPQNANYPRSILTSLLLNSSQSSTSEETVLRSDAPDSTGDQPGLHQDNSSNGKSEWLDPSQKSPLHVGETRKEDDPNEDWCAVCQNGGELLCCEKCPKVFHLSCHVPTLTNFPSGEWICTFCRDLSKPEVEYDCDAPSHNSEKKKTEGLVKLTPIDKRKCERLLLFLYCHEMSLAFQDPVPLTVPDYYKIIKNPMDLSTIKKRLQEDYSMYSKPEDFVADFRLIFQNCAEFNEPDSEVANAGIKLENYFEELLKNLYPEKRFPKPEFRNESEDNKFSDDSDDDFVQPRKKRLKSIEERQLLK
Chain of Bromodomain-containing protein 3 (Homo sapiens) (Q15059 2-726 limits assumed): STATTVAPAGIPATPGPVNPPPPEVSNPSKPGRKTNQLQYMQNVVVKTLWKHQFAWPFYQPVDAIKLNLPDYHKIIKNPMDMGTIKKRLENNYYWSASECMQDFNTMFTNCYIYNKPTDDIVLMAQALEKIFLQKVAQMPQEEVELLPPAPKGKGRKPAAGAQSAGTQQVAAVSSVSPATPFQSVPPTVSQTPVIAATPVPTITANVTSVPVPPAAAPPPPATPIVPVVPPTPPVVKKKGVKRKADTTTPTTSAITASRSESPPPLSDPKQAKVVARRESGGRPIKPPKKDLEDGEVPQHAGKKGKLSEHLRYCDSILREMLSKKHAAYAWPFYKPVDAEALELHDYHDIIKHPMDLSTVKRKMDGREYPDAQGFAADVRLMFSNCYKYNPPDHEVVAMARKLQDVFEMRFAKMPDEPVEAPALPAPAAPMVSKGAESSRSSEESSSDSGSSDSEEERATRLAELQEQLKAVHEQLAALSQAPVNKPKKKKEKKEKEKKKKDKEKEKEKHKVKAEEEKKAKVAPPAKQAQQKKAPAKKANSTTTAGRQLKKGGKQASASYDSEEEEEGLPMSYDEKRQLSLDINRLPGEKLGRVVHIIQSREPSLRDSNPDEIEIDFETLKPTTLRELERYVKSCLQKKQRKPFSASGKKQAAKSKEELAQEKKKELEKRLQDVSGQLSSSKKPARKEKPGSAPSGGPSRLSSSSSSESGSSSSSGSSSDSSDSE
Chain of Retinoic acid receptor beta (Homo sapiens) (P10826 whole entry): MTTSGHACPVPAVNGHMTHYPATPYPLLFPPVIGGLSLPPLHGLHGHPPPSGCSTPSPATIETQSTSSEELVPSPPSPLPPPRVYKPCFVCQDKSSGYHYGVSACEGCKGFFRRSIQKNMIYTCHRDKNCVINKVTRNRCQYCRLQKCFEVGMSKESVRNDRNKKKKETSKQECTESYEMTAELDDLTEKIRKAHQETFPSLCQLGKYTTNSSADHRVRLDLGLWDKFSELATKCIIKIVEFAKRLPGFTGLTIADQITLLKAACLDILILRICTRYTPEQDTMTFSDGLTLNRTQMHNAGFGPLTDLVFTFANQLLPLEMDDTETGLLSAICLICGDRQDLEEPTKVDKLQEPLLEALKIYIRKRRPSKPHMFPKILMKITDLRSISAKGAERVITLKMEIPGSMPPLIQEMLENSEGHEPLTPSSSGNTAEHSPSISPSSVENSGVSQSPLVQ
Chain of Bromodomain-containing protein 7 (Homo sapiens) (Q9NPI1 whole entry): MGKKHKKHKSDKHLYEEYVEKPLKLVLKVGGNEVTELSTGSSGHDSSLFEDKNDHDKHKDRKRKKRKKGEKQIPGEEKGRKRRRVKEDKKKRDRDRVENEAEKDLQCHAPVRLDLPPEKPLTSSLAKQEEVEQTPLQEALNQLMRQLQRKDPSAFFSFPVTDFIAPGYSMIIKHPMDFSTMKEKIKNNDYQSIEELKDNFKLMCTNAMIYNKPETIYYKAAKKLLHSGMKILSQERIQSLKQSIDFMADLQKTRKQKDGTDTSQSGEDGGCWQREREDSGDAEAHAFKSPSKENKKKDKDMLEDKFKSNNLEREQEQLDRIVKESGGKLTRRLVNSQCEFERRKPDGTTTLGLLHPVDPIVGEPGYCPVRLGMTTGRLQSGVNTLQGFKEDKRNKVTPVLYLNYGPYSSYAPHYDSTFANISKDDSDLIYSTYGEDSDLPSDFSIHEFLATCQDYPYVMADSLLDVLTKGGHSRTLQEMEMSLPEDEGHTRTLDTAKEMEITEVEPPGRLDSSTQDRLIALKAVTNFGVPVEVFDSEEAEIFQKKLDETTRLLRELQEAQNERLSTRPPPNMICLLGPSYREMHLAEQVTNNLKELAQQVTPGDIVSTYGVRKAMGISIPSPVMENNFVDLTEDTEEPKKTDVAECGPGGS

In general, ΔTm refers to the change in melting temperature against a reference sample. `COc1cc2c(cc1NS(=O)(=O)c1ccc(Br)cc1C)n(C)c(=O)n2C` had an Inhibition of control in [1] of 82%. The ΔTm came to 1.6 °C in test [2]; 1.4 °C in test [3]; 2 °C in test [4]; 1.2 °C in [5]; 1.4 °C in test [6]; 1.6 °C in test [7]. Further, the ΔTm in test [8] is 1.8 °C.

Turning to `CC1(C)C(=O)C(C)(C)c2cc(C(=O)Nc3ccc(C(=O)O)cc3)ccc21`, the Remaining activity stood at 0.954 in test [9], 0.923 in [11], 0.925 in test [12] and 0.944 in test [13]. Also, the results for the Fold activation in test [10] and in [16] were 1 and 13.5, respectively. Also, the P-value in test [14] is 0.000922. Moreover, the Relative activation in [15] came to 0.48%.

As for `O=C(O)c1ccc2cc(-c3ccc(O)c(C45CC6CC(CC(C6)C4)C5)c3)ccc2c1`, the Fold activation came out at 1.5 in test [17], 2.03 in test [18], 1.24 in test [20] and 1.34 in [21]. In [19], this molecule had a Remaining activity of 0.803. For the same molecule, the P-value in test [22] was 0.0191. Moreover, the Relative activation in test [23] is 0.61%.

In the case of `N[C@@H](Cc1cc(I)c(Oc2ccc(O)c(I)c2)c(I)c1)C(=O)O`, the Remaining activity was determined as 0.559 in test [24], 0.695 in test [25], 0.804 in test [27] and 0.79 in test [28]. In [26], this molecule registered a Fold activation of 1.03. In [29], the P-value came out at 8.08e-06. Besides, the Relative activation in test [30] stood at 0.715%.

For the molecule `Cc1cccc(CN2CCN(C(c3ccccc3)c3ccc(Cl)cc3)CC2)c1` (configuration not stated), the Fold activation amounted to 1 in test [31], 1.14 in test [32], 1.01 in test [33] and 1.12 in [34]. The Remaining activity in test [35] stood at 0.814. In [36], this molecule showed a P-value of 0.00398. This molecule also came in with a Relative activation in [37] of 0.534%.
